Calls of active or inactive are those of the source. The rule behind the calls is not given here.
What was measured:
[1] = test system: Candida albicans; test: Antifungal activity against normal Candida albicans assessed as inhibition of microbial growth at 200 ug/mL incubated for 24 hrs by microbroth dilution assay relative to untreated control; type: functional; conditions: read-out: GI
[2] = test system: Candida albicans; test: Chemo-sensitization of fluconazole antifungal activity against FLC-resistant Candida albicans assessed as inhibition of microbial growth at 200 ug/mL in presence of fluconazole incubated for 24 hrs by microbroth dilution assay relative to untreated control; type: functional, organism-based
[3] = test system: Candida albicans; test: Antifungal activity against FLC-resistant Candida albicans assessed as inhibition of microbial growth incubated for 24 hrs by microbroth dilution assay relative to untreated control; type: functional
[4] = test system: Candida albicans; test: Chemo-sensitization of fluconazole antifungal activity against FLC-resistant Candida albicans assessed as inhibition of microbial growth in presence of fluconazole at 1:1 ratio of compound to fluconazole incubated for 24 hrs by microbroth dilution assay relative to untreated control; type: functional
[5] = test system: Candida albicans; test: Antifungal activity against FLC-resistant Candida albicans assessed as inhibition of microbial growth at 200 ug/mL incubated for 24 hrs by microbroth dilution assay relative to untreated control; type: functional; conditions: read-out: GI

SMILES	inhibition of growth at 200 µg/mL [1] [%]	growth inhibition (GI) [2]	MIC50 [3] [µg/mL]	MIC50 [4] [µg/mL]	inhibition of growth at 200 µg/mL [5] [%]
C/C(=C\C(=O)C[C@H](C)C(=O)O)[C@H]1C[C@H](O)[C@@]2(C)[C@]34O[C@H]3C[C@H]3C(C)(C)C(=O)CC[C@]3(C)C4=CC(=O)[C@]12C	< 50	Active	–	–	–
OC(Cn1cncn1)(Cn1cncn1)c1ccc(F)cc1F [FLUCONAZOLE]	–	–	6.3	–	–
C/C(=C\C(=O)C[C@H](C)C(=O)O)[C@H]1C[C@H](O)[C@@]2(C)C3=CC[C@H]4C(C)(C)C(=O)CC[C@]4(C)C3=CC(=O)[C@]12C	< 50	Active	–	70	–
C/C(=C\C(=O)C[C@H](C)C(=O)O)[C@H]1C[C@H](O)[C@@]2(C)[C@]34O[C@@H]3C[C@H]3C(C)(C)C(=O)CC[C@]3(C)C4=CC(=O)[C@]12C	55	Active	–	7.3	< 50
C[C@H]1C[C@@]2(C[C@](C)(O)C3=C[C@@H](O)[C@@]4(C)C5=C(C(=O)[C@H](O2)[C@]34C)[C@@]2(C)CCC(=O)C(C)(C)[C@@H]2CC5=O)OC1=O	< 50	Active	–	78	–
C/C(=C\C(=O)C[C@H](C)C(=O)O)[C@H]1C[C@@H](O)[C@@]2(C)C3=C(C[C@H](O)[C@]12C)[C@@]1(C)CCC(=O)C(C)(C)[C@@H]1CC3=O	< 50	Active	–	–	–
C[C@@H](CC(=O)C[C@](C)(O)C1=C[C@@H](O)[C@]2(C)[C@]1(C)C(=O)C=C1[C@]23O[C@H]3C[C@H]2C(C)(C)[C@@H](O)CC[C@]12C)C(=O)O	< 50	Active	–	8.8	–
C=C(C)[C@@H]1C[C@H]2O[C@@]23C(=CC(=O)[C@]2(C)[C@@H](/C(C)=C/[C@H]4C[C@H](C)C(=O)O4)C[C@H](O)[C@]23C)[C@@]1(C)CCC(=O)O	< 50	Active	–	29.4	–
C/C(=C\[C@@H]1C[C@H](C)C(=O)O1)[C@H]1C[C@@H](O)[C@]2(C)[C@]1(C)C(=O)C=C1[C@@]3(C)CCC(=O)C(C)(C)[C@@H]3C[C@H]3O[C@@]132	< 50	Active	–	37.8	–
C/C(=C\C(=O)C[C@H](C)C(=O)O)[C@H]1C[C@@H](O)[C@@]2(C)C3=C(C(=O)[C@H](O)[C@]12C)[C@@]1(C)CCC(=O)C(C)(C)[C@@H]1CC3=O	< 50	Active	–	4.4	–
C[C@@H](CC(=O)C[C@](C)(O)C1=CC(=O)[C@]2(C)[C@]1(C)C(=O)C=C1[C@]23O[C@H]3C[C@H]2C(C)(C)C(=O)CC[C@]12C)C(=O)O	< 50	Active	–	3.8	–
C/C(=C\C(=O)C[C@H](C)C(=O)O)[C@H]1C[C@H](O)[C@@]2(C)C3=C(C=C[C@]12C)[C@@]1(C)CCC(=O)C(C)(C)[C@@H]1CC3=O	< 50	Active	–	5.1	–
C/C(=C\C(=O)C[C@H](C)C(=O)O)[C@H]1C[C@@H](O)[C@@]2(C)C3=C(C=C[C@]12C)[C@@]1(C)CCC(=O)C(C)(C)[C@@H]1CC3=O	< 50	Active	–	–	–
C[C@@H](CC(=O)C[C@](C)(O)C1=C[C@H](O)[C@]2(C)[C@]1(C)C(=O)C=C1[C@]23O[C@H]3C[C@H]2C(C)(C)C(=O)CC[C@]12C)C(=O)O	< 50	Active	–	37.7	–
C/C(=C\[C@H]1C[C@H](C)C(=O)O1)[C@H]1C[C@@H](O)[C@]2(C)[C@]1(C)C(=O)C=C1[C@@]3(C)CCC(=O)C(C)(C)[C@@H]3C[C@H]3O[C@@]132	< 50	Active	–	5	–
C[C@@H](CC(=O)C[C@](C)(O)C1=CC(=O)[C@]2(C)[C@]1(C)C(=O)C=C1[C@]23O[C@H]3C[C@H]2C(C)(C)[C@@H](O)CC[C@]12C)C(=O)O	< 50	Active	–	28.3	–
C=C(C)[C@@H]1C[C@H]2O[C@@]23C(=CC(=O)[C@]2(C)[C@@H](/C(C)=C/[C@H]4C[C@H](C)C(=O)O4)C[C@H](O)[C@]23C)[C@@]1(C)CCC(=O)OC	< 50	Active	–	129	–
C/C(=C\[C@@H]1C[C@H](C)C(=O)O1)[C@H]1C[C@H](O)[C@]2(C)[C@]1(C)C(=O)C=C1[C@@]3(C)CCC(=O)C(C)(C)[C@@H]3C[C@H]3O[C@@]132	< 50	Active	–	4.7	–
C[C@@H](CC(=O)C[C@](C)(O)C1=C[C@@H](O)[C@]2(C)[C@]1(C)C(=O)C=C1[C@]23O[C@H]3C[C@H]2C(C)(C)C(=O)CC[C@]12C)C(=O)O	< 50	Active	–	29	–
C=C(C)[C@@H]1C[C@H]2O[C@@]23C(=CC(=O)[C@]2(C)[C@@H](/C(C)=C/[C@H]4C[C@H](C)C(=O)O4)C[C@@H](O)[C@]23C)[C@@]1(C)CCC(=O)O	< 50	Active	–	25.8	–
C/C(=C\[C@H]1C[C@H](C)C(=O)O1)[C@H]1C[C@H](O)[C@]2(C)[C@]1(C)C(=O)C=C1[C@@]3(C)CCC(=O)C(C)(C)[C@@H]3C[C@H]3O[C@@]132	< 50	Active	–	47.9	–
C/C(=C\C(=O)C[C@H](C)C(=O)O)[C@H]1C[C@@H](O)[C@@]2(C)C3=C([C@@H](O)[C@H](O)[C@]12C)[C@@]1(C)CCC(=O)C(C)(C)[C@@H]1CC3=O	< 50	Active	–	–	–

Reference: ChEMBL document CHEMBL4387784, “Triterpenoids from Ganoderma gibbosum: A Class of Sensitizers of FLC-Resistant Candida albicans to Fluconazole” (2019)
